PMC12569736 (Journal of Cosmetic Dermatology, 2025)

What was measured:
human tyrosinase (hTYR) = biological target: T1, human tyrosinase (hTYR) (Homo sapiens, UniProt P14679); test: L‐DOPA oxidation assay for tyrosinase activity (MNT‐1 cell lysate); type: biochemical; details: for IC50: MNT‐1 lysate, L‐DOPA 4 mM, pH 6.9, read-out: IC50 against hTYR; for inhibition at 0.4 µM: read-out: inhibitory activity against hTYR compared to the control; for inhibitory effect on hTYR at maximum tested concentration: up to 33.3 μM
T1 construct: tyrosinase enzyme solution derived from MNT‐1 cells; endogenous in cells; host or cells: MNT-1 human melanoma cell line (crude lysate supernatant)
T1 sequence (P14679 19-529): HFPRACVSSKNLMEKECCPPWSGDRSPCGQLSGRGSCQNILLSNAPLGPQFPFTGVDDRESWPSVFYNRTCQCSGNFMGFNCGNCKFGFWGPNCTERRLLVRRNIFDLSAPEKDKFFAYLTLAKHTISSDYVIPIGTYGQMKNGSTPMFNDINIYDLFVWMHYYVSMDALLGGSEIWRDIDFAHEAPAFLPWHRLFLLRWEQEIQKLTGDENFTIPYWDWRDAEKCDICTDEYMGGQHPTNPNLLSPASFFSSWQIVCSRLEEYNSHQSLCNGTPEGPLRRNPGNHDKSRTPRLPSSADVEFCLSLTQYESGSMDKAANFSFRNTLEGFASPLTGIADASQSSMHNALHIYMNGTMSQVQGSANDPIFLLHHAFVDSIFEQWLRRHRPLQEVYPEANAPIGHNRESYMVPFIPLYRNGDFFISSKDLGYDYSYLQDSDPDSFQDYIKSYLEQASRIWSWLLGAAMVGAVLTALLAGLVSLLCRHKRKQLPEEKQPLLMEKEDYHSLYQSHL
Method: The hTYR‐mediated L‐DOPA oxidation assay was performed according to Winder and Harris. MNT‐1 cells were resuspended in 0.05 M sodium phosphate buffer (pH 6.9) and sonicated for 1 min. After incubation on ice for 3–5 min, the mixture underwent a second sonication. The lysate was centrifuged at 13 000 rpm for 15 min at 4°C, and the supernatant was collected and kept on ice.
For the assay, 20 μL of crude enzyme solution and 80 μL sodium phosphate buffer were added to a 96‐well plate and centrifuged at 1000 rpm for 30 s. Subsequently, 2 μL of different concentrations of test compounds were added to each well, followed by centrifugation at 1000 rpm for 30 s. Finally, 100 μL L‐DOPA (final concentration 4 mM) was added to initiate the reaction. The microplate reader (Synergy H1 Hybrid Reader, BioTek) was used to monitor the reaction at 26°C, measuring absorbance at 475 nm every minute for 60 min. IC50 values were calculated using GraphPad software based on Vmax values from the kinetic curves.
The L‐DOPA tyrosinase assay was performed using a tyrosinase enzyme solution derived from MNT‐1 cells in 50 mM sodium phosphate buffer (pH 6.9), with a substrate (L‐DOPA) concentration of 4 mM and various concentrations of inhibitors as indicated. Data represent mean ± standard deviation of three independent experiments.

[1] = tested on: NRF2/ARE signaling pathway; test: NRF2/ARE‐luciferase reporter assay in HEK293T cells; type: cell-based, human; details: 10 µM, 48 h, relative to DMSO
Method: The NRF2‐responsive firefly luciferase reporter plasmid (pGL4.27_ARE NRF2‐SPE) and Renilla luciferase control plasmid (pRL‐TK) were co‐transfected into HEK293T cells using Lipofectamine 2000. After 24 h, transfected cells were seeded into 96‐well plates and incubated overnight. Test compounds (10 μM) were added, and cells were incubated for an additional 48 h. Luciferase activities were measured using the Dual‐Lumi Luciferase Reporter Assay Kit (Beyotime Biotechnology), following the manufacturer's instructions.
FIGURE 6 KT‐939 activates the ARE/NRF2 signaling pathway. HEK293T cells transfected with an NRF2‐responsive firefly luciferase reporter were treated with 10 µM of KT‐939, hydroquinone (Hq), 377, or 4‐butylresorcinol for 48 h. Luminescence signals were normalized to renilla and expressed relative to DMSO control. *** p < 0.001 vs DMSO.

MNT‐1 cells = test: Melanin content in MNT‐1 cells after 6 days of treatment; type: cell-based, human; details: for inhibition of melanin production: 0.37 μM; for inhibition of melanin production / inhibition at 1.1 µM / inhibition at 3.3 µM / inhibition at 10 µM: 6 days; for IC50 / inhibition at 1.1 µM / inhibition at 3.3 µM / inhibition at 10 µM: Homo sapiens; for IC50: 144 h, MNT‐1, 6 days, read-out: IC50 of melanin production; for inhibition at 1.1 µM / inhibition at 3.3 µM / inhibition at 10 µM: MNT-1, 144 h, read-out: inhibition of melanin production
Method: MNT‐1 cells were exposed to varying concentrations of test compounds for 6 days. After treatment, cells were harvested and lysed in RIPA buffer on ice for 20 min. Lysates were centrifuged at 13 000 rpm for 10 min at 4°C, and the supernatant was collected. Protein concentration was quantified using a BCA Protein Assay Kit (Thermo Fisher). To extract melanin, cell pellets were dissolved in 1 M NaOH and incubated for 3 h at 80°C. Absorbance at 405 nm was measured using a Synergy H1 Hybrid Reader. Melanin content was quantified by referencing a standard curve of synthetic melanin (maximum concentration 50 μg/mL, 2‐fold gradient dilution, 8 concentration points). Melanin content was normalized to protein concentration (μg melanin/mg protein), and IC50 values were calculated using GraphPad software.
FIGURE 3 Inhibition of melanin production in MNT‐1 by KT‐939, Thiamidol, and 4‐butylresorcinol. MNT‐1 cells were treated with different concentrations of KT‐939, Thiamidol, or 4‐butylresorcinol for 6 days. The melanin content was quantified based on the standard curve of melanin, and the melanin content per mg of protein was utilized for IC50 calculations with GraphPad software.

MelanoDerm skin model = tested on: MelanoDerm skin model; parameters: method as in PMID 29427586; details: cited from earlier work
melasma = tested on: melasma; parameters: method as in PMID 34676600; details: moderate‐to‐severe melasma, 24 weeks of application, cited from earlier work
hTYR enzyme = biological target: hTYR enzyme; parameters: method as in PMID 29427586; details: purified hTYR; read-out: IC50 against the hTYR enzyme; cited from earlier work

In the case of `CCCCc1ccc(O)cc1O` [4‐butylresorcinol], the IC50 (human tyrosinase (hTYR)) is reported as 7.09 µM, the inhibition at 0.4 µM (human tyrosinase (hTYR); at 0.4 μM) is reported as 9.7% and the “NRF2 signaling pathway activation (luciferase reporter)” value (shortened to “NRF2 signaling pathway activation”) [1] is reported as “no effect on NRF2 activation”. The “inhibition of melanin production” value (MNT‐1 cells) was “neither Thiamidol nor 4‐butylresorcinol showed inhibitory activity”, the IC50 (MNT‐1 cells) was 8 µM and the inhibition at 1.1 µM (MNT‐1 cells) was 15.8%. For the same compound, the inhibition at 3.3 µM (MNT‐1 cells) was 32.6% and the inhibition at 10 µM (MNT‐1 cells) was 48.4%.
In the case of `CC(C)C(=O)Nc1nc(-c2ccc(O)cc2O)cs1` [Thiamidol, isobutylamido thiazolyl resorcinol], the IC50 (MelanoDerm skin model) is given as 0.9 µM, the tolerability (melasma) is given as “favorable tolerability” and the “melasma severity compared to baseline and vehicle” value (melasma; Fitzpatrick phototypes III–V) is given as “significantly reduced melasma severity”. The IC50 (hTYR enzyme) was 1.1 µM, the IC50 (human tyrosinase (hTYR)) was 0.33 µM and the inhibition at 0.4 µM (human tyrosinase (hTYR); at 0.4 μM) was 53.5%. The “inhibition of melanin production” value (MNT‐1 cells) was “neither Thiamidol nor 4‐butylresorcinol showed inhibitory activity”, the IC50 (MNT‐1 cells) was 1.3 µM and the inhibition at 1.1 µM (MNT‐1 cells) was 27.2%. It also gave an inhibition at 3.3 µM (MNT‐1 cells) of 62.2% and an inhibition at 10 µM (MNT‐1 cells) of 76.5%.
With `OC[C@H]1O[C@@H](Oc2ccc(O)cc2)[C@H](O)[C@@H](O)[C@@H]1O` [arbutin] the “inhibitory effect on hTYR at maximum tested concentration” value (shortened to “inhibitory effect on hTYR”) (human tyrosinase (hTYR)) was “no significant inhibitory effects”.
For `CC(c1ccccc1)c1ccc(O)cc1O` (centres unmarked) [compound 377, phenethyl resorcinol], the IC50 (human tyrosinase (hTYR)) was 21.3 µM, the “inhibitory activity against hTYR compared to the control” value (human tyrosinase (hTYR); at 0.4 μM) was 2.7% and the “NRF2 signaling pathway activation” value [1] was “no effect on NRF2 activation”.
For `CC1(C)C=Cc2c(ccc3c2OC[C@@H](c2ccc(O)cc2O)C3)O1` [glabridin], the “inhibitory effect on hTYR” value (human tyrosinase (hTYR)) was “no significant inhibitory effects”.
With `Oc1ccc(O)cc1` [hydroquinone] the “inhibitory effect on hTYR” value (human tyrosinase (hTYR)) was “no significant inhibitory effects” and the “NRF2 signaling pathway activation” value [1] was “no effect on NRF2 activation”.
For `NC(=O)c1cccnc1` [nicotinamide], the “inhibitory effect on hTYR” value (human tyrosinase (hTYR)) was “no significant inhibitory effects”.
`Oc1ccc(/C=C/c2cc(O)cc(O)c2)cc1` [resveratrol] gave an IC50 (human tyrosinase (hTYR)) of 6.04 µM and an inhibition at 0.4 µM (human tyrosinase (hTYR); at 0.4 μM) of 13.4%.
